# Laboratory results taken from patent US8658644B2, “Pyridazine derivatives, processes for their preparation and their use as fungicides” (Syngenta Crop Protection, LLC, priority 2011, dated 2014).
# Experiments:
# [1] = test system: Erysiphe necator (Uncinula necator); assay: Erysiphe necator (Uncinula necator) / grape / preventative; format: in vivo; conditions: grape seedlings cv. Gutedel, inoculated 1 day after application, leaf area covered by disease 7 to 9 days after application, read-out: inhibited fungal infestation
# Protocol: Erysiphe necator (Uncinula necator)/Grape/Preventative (Action Against Powdery Mildew on Grape) 5-week old grape seedlings cv. Gutedel were treated with the formulated test compound in a spray chamber. The test plants are inoculated by shaking plants infected with grape powdery mildew above them 1 day after application. The inoculated test plants were incubated at 24/22° C. (day/night) and 70% rh under a light regime of 14/10 h (light/dark) and the percentage leaf area covered by disease was assessed when an appropriate level of disease appears on untreated check plants (7 to 9 days after application).
# [2] = test system: Magnaporthe grisea (Pyricularia oryzae); assay: whole plant or invertebrate; format: in vivo; conditions: read-out: inhibited fungal infestation
# [3] = test system: Alternaria Solani; assay: Alternaria solani / tomato / preventative; format: in vivo; conditions: tomato plants cv. Roter Gnom, inoculated two days after application, leaf area covered by disease 5 to 7 days after application, read-out: inhibited fungal infestation
# Protocol: (§1) Alternaria Solani/Tomato/Preventative (Action Against Alternaria on Tomato) 4-week old tomato plants cv. Roter Gnom were treated with the formulated test compound in a spray chamber. The test plants were inoculated by spraying them with a spore suspension two days after application. The inoculated test plants were incubated at 22/18° C. (day/night) and 95% rh in a greenhouse and the percentage leaf area covered by disease was assessed when an appropriate level of disease appears on untreated check plants (5 to 7 days after application).
# [4] = test system: Mycosphaerella graminicola (Septoria tritici); assay: Mycosphaerella graminicola (Septoria tritici) / wheat / curative; format: in vivo; conditions: Zymoseptoria tritici, wheat plants cv. Riband, treated 5 days after inoculation, leaf area covered by disease 11 to 14 days after application, read-out: inhibited fungal infestation
# Protocol: Mycosphaerella graminicola (Septoria tritici)/Wheat/Curative (Action Against Septoria Leaf Spot on Wheat) 2-week old wheat plants cv. Riband are inoculated by spraying them with a spore suspension. After an incubation period of 2 days at 22° C./21° C. (day/night) and 95% rh, the test plants are kept at 22° C./21° C. (day/night) and 70% rh in a climate chamber. The inoculated test plants are treated with the formulated test compound in a spray chamber 5 days after inoculation. The percentage leaf area covered by disease is assessed when an appropriate level of disease appears on untreated check plants (11 to 14 days after application).
# [5] = test system: Mycosphaerella graminicola (Septoria tritici); assay: Mycosphaerella graminicola (Septoria tritici) / wheat / preventive; format: in vivo; conditions: Zymoseptoria tritici, wheat plants cv. Riband, inoculated one day after application, leaf area covered by disease 16 to 19 days after application, read-out: inhibited fungal infestation
# Protocol: Mycosphaerella graminicola (Septoria tritici)/Wheat/Preventive (Action Against Septoria Leaf Spot on Wheat) 2-week old wheat plants cv. Riband were treated with the formulated test compound in a spray chamber. The test plants were inoculated by spraying a spore suspension on them one day after application. After an incubation period of 1 day at 22° C./21° C. (day/night) and 95% rh, the test plants were kept at 22° C./21° C. (day/night) and 70% rh in a greenhouse. The percentage leaf area covered by disease is assessed when an appropriate level of disease appears on untreated check plants (16 to 19 days after application).
# [6] = test system: Botryotinia fuckeliana (Botrytis cinerea); assay: Botryotinia fuckeliana (Botrytis cinerea) / tomato / preventative; format: in vivo; conditions: tomato plants cv. Roter Gnom, inoculated two days after application, leaf area covered by disease 5 to 6 days after application, read-out: inhibited fungal infestation
# Protocol: as §1, with “Botryotinia fuckeliana (Botrytis cinerea)/Tomato/Preventative” for “Alternaria Solani/Tomato/Preventative”, “Botrytis” for “Alternaria”, “20°” for “22/18°”, “C.” for “C. (day/night)”, “is” for “was”, “6” for “7”
# [7] = test system: Pyrenophora teres (Helminthosporium teres); assay: Pyrenophora teres (Helminthosporium teres) / barley / preventative; format: in vivo; conditions: barley plants cv. Regina, inoculated 2 days after application, leaf area covered by disease 5 to 7 days after application, read-out: inhibited fungal infestation
# Protocol: Pyrenophora teres (Helminthosporium teres)/Barley/Preventative (Action Against Net Blotch on Barley) 1-week old barley plants cv. Regina were treated with the formulated test compound in a spray chamber. The test plants were inoculated by spraying them with a spore suspension 2 days after application. The inoculated test plants were incubated at 20° C. and 95% rh and the percentage leaf area covered by disease was assessed when an appropriate level of disease appears on untreated check plants (5 to 7 days after application).
# [8] = test system: Puccinia recondita; assay: Puccinia recondita / wheat / preventative; format: in vivo; conditions: wheat plants cv. Arina, inoculated one day after application, leaf area covered by disease 12 to 14 days after application, read-out: inhibited fungal infestation
# Protocol: Puccinia recondita/Wheat/Preventative (Action Against Brown Rust on Wheat) 2-week old wheat plants cv. Arina were treated with the formulated test compound in a spray chamber. The test plants were inoculated by spraying them with a spore suspension one day after application. After an incubation period of 1 day at 20° C. and 95% rh, the test plants were kept at 20° C./18° C. (day/night) and 60% rh in a greenhouse. The percentage leaf area covered by disease was assessed when an appropriate level of disease appears on untreated check plants (12 to 14 days after application).
SMILES,melting point [°C],inhibition at 200 ppm [1] [%],inhibition at 200 ppm [2] [%],inhibition at 200 ppm [3] [%],inhibition at 200 ppm [4] [%],inhibition at 200 ppm [5] [%],inhibition at 200 ppm [6] [%],inhibition at 200 ppm [7] [%],inhibition at 200 ppm [8] [%]
"C#Cc1ccc(-c2c(C)n[nH]c(=O)c2-c2c(F)cc(F)cc2F)cc1 [Compound 1, 5-(4-ethynylphenyl)-6-methyl-4-(2,4,6-trifluorophenyl)-2H-pyridazin-3-one]",252 to 254,,,,,,,,
"C#Cc1ccc(-c2c(C)nnc(Cl)c2-c2c(F)cc(F)cc2F)cc1 [Compound 2, 3-chloro-5-(4-ethynylphenyl)-6-methyl-4-(2,4,6-trifluorophenyl)pyridazine]",174 to 175,≥ 80,≥ 80,≥ 80,≥ 80,≥ 80,≥ 80,≥ 80,≥ 80
"C#Cc1ccc(-c2c(C)nnc(OC)c2-c2c(F)cc(OC)cc2F)cc1 [Compound 4, 4-(2,6-difluoro-4-methoxyphenyl)-5-(4-ethynylphenyl)-3-methoxy-6-methylpyridazine]",192 to 193,,≥ 80,≥ 80,≥ 80,≥ 80,≥ 80,≥ 80,
